Data as given in patent publication US6989378B2, “Testosterone derivative” (Akzo Nobel N.V., priority 1998, dated 2006).
Values after ≈ are worked out from the molar mass of the structure shown. Where two headings read alike, the source gives them in different places.

Legend:
[1] = Solubility in oil solvent (amount of compound dissolved per ml of solvent); format: physicochemical; settings: for solubility at 15 min: oil or lipid, thermodynamic from solid, dissolved by heating in waterbath of 50° C. and Vortex shaking 15 minutes
Description: About 20–30 mgs of compound were powdered and then dissolved in as little solvent as necessary to dissolve all the visible particles. Dissolution was accomplished by heating in a waterbath of 50° C. and shaking on a Vortex™ shaker for 15 minutes. The solubility was calculated by determining the amount of compound (in mg) dissolved per ml of solvent.

monkeys = settings: anabolic and antigonadotropic effects; cited from earlier work
rats = settings: anabolic and antigonadotropic effects; cited from earlier work
[2] = arachis oil, read-out: solubility arachis oil
[3] = oleic acid, read-out: solubility oleic acid

| Compound | solubility in arachis oil compared with the other androgens ([1]; arachis oil, comparison in words) | solubility at 15 min [1, 2] [mg/mL] | solubility at 15 min [1, 3] [mg/mL] | solubility in oleic acid compared with the known androgens ([1]; oleic acid, comparison in words) | androgenic potency relative to testosterone (monkeys) | androgenic potency relative to testosterone (rats) |
| --- | --- | --- | --- | --- | --- | --- |
| CCCCCCCCCCC(=O)O[C@H]1CC[C@H]2[C@H]3[C@H](CC[C@]12C)[C@H]1CCC(=O)C=C1C[C@H]3C [MENT undecanoate, (7α,17β)-7-methyl-17-[(1-oxoundecyl)oxy]estr-4-en-3-one] | much better than that of any of the other androgens | > 200 | ≥ 500 | better than expected |  |  |
| C[C@@H]1CC2=CC(=O)CC[C@@H]2[C@H]2CC[C@]3(C)[C@@H](O)CC[C@H]3[C@@H]21 [MENT, (7α,17β)-17-hydroxy-7-methylestr-4-en-3-one] |  | ≤ 0.1 | ~15 (≈ 52 mM) |  | ten times more potent than testosterone | ten times more potent than testosterone |
| CCCCCCCCCCC(=O)O[C@H]1CC[C@H]2[C@@H]3CCC4=CC(=O)CC[C@]4(C)[C@H]3CC[C@]12C [testosterone undecanoate, (17β)-17-[(1-Oxoundecyl)oxy]androst-4-en-3-one] |  | ~45 (≈ 98.5 mM) | 200 to 250 (≈ 438 to 547 mM) |  |  |  |
| C[C@]12CC[C@H]3[C@@H](CCC4=CC(=O)CC[C@@]43C)[C@@H]1CC[C@@H]2O [testosterone] |  | < 0.1 | ~25 (≈ 86.7 mM) |  |  |  |
